{
  "source": "patent US20240344145A1",
  "about": "“PHARMACOGENOMICS SCORE TO MAKE DECISIONS ON THERAPY AUGMENTATION IN AML” (University of Florida Research Foundation, Incorporated, priority 2021, published 2024)",
  "system": "ara-C metabolic pathway genes",
  "test": "Association of ara-C pathway SNP genotypes with MRD1, EFS and OS in AML02 (logistic regression and Cox models; also within LDAC and HDAC arms)",
  "set-up": "species or system human",
  "details": "within arm of AML02",
  "source_text": "Genomic DNA from patients enrolled in the multi-site St. Jude AML02 trial was genotyped for 155 SNPs in 16 genes of relevance to ara-C pharmacology using sequenom iPlex platform that uses MALDI-TOF based chemistry at University of Minnesota, Biomedical Genomics Center. SNPs were selected based on previously reported studies. For SNPs lacking literature on genetic variation, SNPs were selected to capture LD blocks (European and African ancestry) on a gene. Of 155 SNPs, 1 SNP was excluded due to low call rate (<90%), 47 SNPs were excluded due to minimum allele frequency of less than 5%, 11 SNPs were excluded due to high LD (r^2>0.9) with other SNPs; two SNPs were excluded because of deviation from Hardy-Weinberg equilibrium. Genotype for the COG-AAML0531 cohort for the selected SNPs was obtained using sequenom platform or TaqMan genotyping assays, and for a few SNPs was extracted from the data available on Illumina 2.5 Omni array. Genotype calls from multiple platforms were confirmed across multiple samples randomly collected from the cohort.\nSNP genotype groups in three different modes of inheritance (additive, dominant, and recessive) were tested for association with MRD1 using logistic regression models. Odds ratio (OR) and 95% confidence interval (CI) were calculated for each test. SNPs with association P-value<0.05 were considered significant. Cox-proportional hazard models were used to evaluate association of genotype groups with EFS or OS. Hazard ratio (HR) and 95% CI were calculated for each test. p-value<0.05 was considered statistically significant. Given initial risk group assignments are well-established prognostic factors associated with outcome, outcome association analysis of SNPs with and without adjusting for risk group was also performed to identify SNPs that are associated with outcome independent of risk group.\nSNPs with p<0.15 in risk-adjusted univariate evaluation with clinical endpoints (MRD1, EFS, and OS) were tested for all possible combinations with a maximum of three SNPs per model in multivariable logistic regression models for association with MRD1 and Cox-proportional hazard models for association with EFS and OS. Analysis for up to 3 SNP combinations was restricted due to computational challenges as increasing the maximum number of SNPs per model drastically increases the number of models as 1000 permutations were run for each model. Models were ordered according to their Bayesian Information Criterion (BIC) and weight in favor of each model. One thousand permutation tests were performed for each model to determine statistical significance. The six unique SNPs from the most significant models for EFS and MRD1 were included in the development of the ACS10 score as described in the results section.\nThe multicenter AML02 clinical trial randomly assigned subjects to receive low dose ara-C (LDAC: 100 mg/m^2; n=91 patients) or high dose ara-C(HDAC: 3 g/m^2; n=75 patients) in combination with daunorubicin and etoposide as the first course of chemotherapy as described above in patient cohort section. Thus, the association of SNPs with outcome within each arm separately was also explored (Table 5).",
  "key": {"[1]": {"details": "rs4917384 (NT5C2, WT C, VAR T), MOI D"}, "[2]": {"details": "rs4980345 (SLC28A1, WT G, VAR A), MOI A"}, "[3]": {"details": "rs6552622 (DCTD, WT C, VAR G), MOI D"}, "[4]": {"details": "rs6742272 (RRM2, WT C, VAR G), MOI A"}, "[5]": {"details": "rs6834938 (DCTD, WT C, VAR T), MOI R"}, "[6]": {"details": "rs6946062 (NT5C3, WT T, VAR C), MOI D"}, "[7]": {"details": "rs7533657 (CTPS1, WT C, VAR T), MOI R"}, "[8]": {"details": "rs7543016 (CMPK1, WT C, VAR G), MOI R"}, "[9]": {"details": "rs7776847 (NT5C3, WT G, VAR A), MOI A"}, "[10]": {"details": "rs7874528 (SLC28A3, WT G, VAR T), MOI D"}, "[11]": {"details": "rs10252880 (NT5C3, WT G, VAR C), MOI A"}, "[12]": {"details": "rs10767827 (RRM1, WT G, VAR T), MOI D"}, "[13]": {"details": "rs10786736 (NT5C2, WT G, VAR C), MOI D"}, "[14]": {"details": "rs10916819 (CDA, WT A, VAR G), MOI D"}, "[15]": {"details": "rs11140525 (SLC28A3, WT G, VAR A), MOI A"}, "[16]": {"details": "rs11191558 (NT5C2, WT G, VAR A), MOI D"}, "[17]": {"details": "rs11737887 (DCTD, WT T, VAR C), MOI A"}, "[18]": {"details": "rs12554292 (SLC28A3, WT C, VAR T), MOI D"}, "[19]": {"details": "rs12806698 (RRM1, WT C, VAR A), MOI D"}, "[20]": {"details": "rs17103168 (CMPK1, WT A, VAR G), MOI D"}},
  "data": [
    {"smiles": "Nc1ccn([C@@H]2O[C@H](CO)[C@@H](O)[C@@H]2O)c(=O)n1", "note": "[HDAC, cytarabine]", "values": [
      {"measurement": "EFS HR (95% CI)", "setting": "[1]", "value": "0.74 (0.51-1.08)"},
      {"measurement": "MRD1 OR (95% CI)", "setting": "[1]", "value": "0.73 (0.44-1.2)"},
      {"measurement": "OS HR (95% CI)", "setting": "[1]", "value": "0.61 (0.38-0.98)"},
      {"measurement": "EFS HR (95% CI)", "setting": "[2]", "value": "0.94 (0.47-1.87)"},
      {"measurement": "MRD1 OR (95% CI)", "setting": "[2]", "value": "0.55 (0.19-1.62)"},
      {"measurement": "OS HR (95% CI)", "setting": "[2]", "value": "1.3 (0.64-2.64)"},
      {"measurement": "EFS HR (95% CI)", "setting": "[3]", "value": "1.71 (1.15-2.53)"},
      {"measurement": "MRD1 OR (95% CI)", "setting": "[3]", "value": "1.06 (0.56-1.99)"},
      {"measurement": "OS HR (95% CI)", "setting": "[3]", "value": "1.84 (1.19-2.85)"},
      {"measurement": "EFS HR (95% CI)", "setting": "[4]", "value": "1.09 (0.68-1.76)"},
      {"measurement": "MRD1 OR (95% CI)", "setting": "[4]", "value": "0.86 (0.44-1.68)"},
      {"measurement": "OS HR (95% CI)", "setting": "[4]", "value": "1.09 (0.62-1.92)"},
      {"measurement": "EFS HR (95% CI)", "setting": "[5]", "value": "0.7 (0.34-1.44)"},
      {"measurement": "MRD1 OR (95% CI)", "setting": "[5]", "value": "1.08 (0.49-2.38)"},
      {"measurement": "OS HR (95% CI)", "setting": "[5]", "value": "0.86 (0.42-1.79)"},
      {"measurement": "EFS HR (95% CI)", "setting": "[6]", "value": "1.13 (0.78-1.63)"},
      {"measurement": "MRD1 OR (95% CI)", "setting": "[6]", "value": "0.96 (0.59-1.56)"},
      {"measurement": "OS HR (95% CI)", "setting": "[6]", "value": "1.47 (0.92-2.35)"},
      {"measurement": "EFS HR (95% CI)", "setting": "[7]", "value": "1.76 (1.14-2.7)"},
      {"measurement": "MRD1 OR (95% CI)", "setting": "[7]", "value": "1.31 (0.67-2.57)"},
      {"measurement": "OS HR (95% CI)", "setting": "[7]", "value": "1.97 (1.22-3.18)"},
      {"measurement": "EFS HR (95% CI)", "setting": "[8]", "value": "0.69 (0.38-1.25)"},
      {"measurement": "MRD1 OR (95% CI)", "setting": "[8]", "value": "1.29 (0.69-2.42)"},
      {"measurement": "OS HR (95% CI)", "setting": "[8]", "value": "0.65 (0.32-1.35)"},
      {"measurement": "EFS HR (95% CI)", "setting": "[9]", "value": "0.83 (0.46-1.5)"},
      {"measurement": "MRD1 OR (95% CI)", "setting": "[9]", "value": "1.23 (0.57-2.65)"},
      {"measurement": "OS HR (95% CI)", "setting": "[9]", "value": "0.71 (0.34-1.47)"},
      {"measurement": "EFS HR (95% CI)", "setting": "[10]", "value": "1.24 (0.85-1.81)"},
      {"measurement": "MRD1 OR (95% CI)", "setting": "[10]", "value": "0.91 (0.52-1.61)"},
      {"measurement": "OS HR (95% CI)", "setting": "[10]", "value": "1.41 (0.91-2.17)"},
      {"measurement": "EFS HR (95% CI)", "setting": "[11]", "value": "0.99 (0.62-1.57)"},
      {"measurement": "MRD1 OR (95% CI)", "setting": "[11]", "value": "1.18 (0.62-2.27)"},
      {"measurement": "OS HR (95% CI)", "setting": "[11]", "value": "0.74 (0.42-1.32)"},
      {"measurement": "EFS HR (95% CI)", "setting": "[12]", "value": "1.03 (0.71-1.49)"},
      {"measurement": "MRD1 OR (95% CI)", "setting": "[12]", "value": "0.55 (0.31-0.97)"},
      {"measurement": "OS HR (95% CI)", "setting": "[12]", "value": "1.04 (0.68-1.61)"},
      {"measurement": "EFS HR (95% CI)", "setting": "[13]", "value": "0.92 (0.6-1.4)"},
      {"measurement": "MRD1 OR (95% CI)", "setting": "[13]", "value": "0.9 (0.51-1.59)"},
      {"measurement": "OS HR (95% CI)", "setting": "[13]", "value": "0.92 (0.56-1.52)"},
      {"measurement": "EFS HR (95% CI)", "setting": "[14]", "value": "1.08 (0.75-1.56)"},
      {"measurement": "MRD1 OR (95% CI)", "setting": "[14]", "value": "1.87 (1.09-3.21)"},
      {"measurement": "OS HR (95% CI)", "setting": "[14]", "value": "1.33 (0.83-2.12)"},
      {"measurement": "EFS HR (95% CI)", "setting": "[15]", "value": "0.73 (0.44-1.21)"},
      {"measurement": "MRD1 OR (95% CI)", "setting": "[15]", "value": "0.44 (0.21-0.94)"},
      {"measurement": "OS HR (95% CI)", "setting": "[15]", "value": "0.87 (0.49-1.56)"},
      {"measurement": "EFS HR (95% CI)", "setting": "[16]", "value": "0.87 (0.56-1.37)"},
      {"measurement": "MRD1 OR (95% CI)", "setting": "[16]", "value": "0.93 (0.53-1.66)"},
      {"measurement": "OS HR (95% CI)", "setting": "[16]", "value": "0.84 (0.48-1.44)"},
      {"measurement": "EFS HR (95% CI)", "setting": "[17]", "value": "0.96 (0.49-1.89)"},
      {"measurement": "MRD1 OR (95% CI)", "setting": "[17]", "value": "2.74 (1.06-7.06)"},
      {"measurement": "OS HR (95% CI)", "setting": "[17]", "value": "0.95 (0.43-2.12)"},
      {"measurement": "EFS HR (95% CI)", "setting": "[18]", "value": "1.15 (0.75-1.76)"},
      {"measurement": "MRD1 OR (95% CI)", "setting": "[18]", "value": "1.92 (1.04-3.56)"},
      {"measurement": "OS HR (95% CI)", "setting": "[18]", "value": "1.4 (0.87-2.24)"},
      {"measurement": "EFS HR (95% CI)", "setting": "[19]", "value": "0.64 (0.43-0.96)"},
      {"measurement": "MRD1 OR (95% CI)", "setting": "[19]", "value": "0.89 (0.54-1.45)"},
      {"measurement": "OS HR (95% CI)", "setting": "[19]", "value": "0.62 (0.37-1.02)"},
      {"measurement": "EFS HR (95% CI)", "setting": "[20]", "value": "1.05 (0.73-1.51)"},
      {"measurement": "MRD1 OR (95% CI)", "setting": "[20]", "value": "0.62 (0.37-1.04)"},
      {"measurement": "OS HR (95% CI)", "setting": "[20]", "value": "0.9 (0.58-1.41)"}
    ]}
  ]
}
